Laboratory results as given in patent US11738067B2, “Elevated intracranial pressure treatment” (INVEX THERAPEUTICS LTD., priority 2014, dated 2023).
Entries after “also recorded” stand apart in the source; their conditions may differ. Values belong to the compound of their own block, whether it stands above or below them. The star is where a group is joined. Myristoyl = CCCCCCCCCCCCCC(=O)*

What was measured:
Na^+K^+ATPase [1] = assay: Na+K+ATPase activity assay in CPe cells; type: cell-based, rat
Description: (§1) Choroid plexus tissue from lateral and fourth ventricles were dissected and incubated with 0.25% trypsin solution for 2.5 hours at 4° C. followed by 30 minutes at 37° C. Trypsin digestion was stopped by the addition of newborn calf serum and the cell suspension was centrifuged at 20 g for 10 minutes. Cells were resuspended in DMEM/F12 supplemented with 10% FBS, 1% penicillin/streptomycin, 4 mM L-glutamine, 200 ng/ml hydrocortisone, 5 ng/ml sodium selenite and 10 ng/ml EGF. 20 μM cytosine arabinoside was used for the first 4 days in culture to limit the growth of fibroblasts (Gath et al., 1997). Initially the cells were seeded onto a laminin coated 6 well plate and allowed to grow for 2 days before being transferred to laminin coated 96 well plates or 12 well inserts (Greiner Bio-One Ltd). On day 4 the media was replaced with DMEM/F12 supplemented with 10% FBS and 1% penicillin/streptomycin and changed every 2-3 days. After reaching confluency, CPe cells were serum deprived for 3 days prior to the beginning of the studies (between days 10-14).
The effect of Exendin-4 on Na^+K^+ATPase activity in the choroid plexus was evaluated by the colorimetric measurement of phosphate released from ATP with the use of a phosphate assay kit (ab65622, Abcam); with Na^+K^+ATPase activity being defined as the portion of phosphate produced that is sensitive to Ouabain. CPe cells were incubated with aCSF for 1 hour at 37° C. before incubation in aCSF containing; 100 nM Exendin-4 (n=7), 5 μM PKI-16-22-amide (n=8), 100 nM Exendin-4+5 μM PKI-16-22-amide (n=8); in the presence and absence of 1 mM Ouabain for 30 minutes at 37° C. The cells were then lysed on ice and spun at 13,000 g to remove cell debris. Phosphate was measured as per the manufacturer's instructions. Briefly the samples were added to the reaction mix and incubated at room temperature for 60 minutes before the plate was read at 690 nm. Na^+K^+ATPase activity was calculated as the difference between the amount of phosphate produced in the presence and absence of Ouabain for each treatment.

[2] = Clinical observation of ICP in IIH patients treated with diuretics; type: in vivo
[3] = IIH patients, cited from earlier work; for visual field grades: no significant difference between groups
Na^+K^+ATPase [4] = settings: literature refs 10, 13-15; cited from earlier work
[5] = system: rat choroid plexus explants; assay: Intracellular Na+ levels (Sodium Green) in choroid plexus explants; type: cell-based; settings: artificial CSF+Exendin-4 for 3 hours vs no treatment
Description: Intracellular Na^+ levels were observed using Sodium Green (iNa^+) (life technologies). Briefly, rat choroid plexus explants were incubated with iNa^+ for 30 minutes before treatment with artificial CSF (no treatment) or artificial CSF+Exendin-4 for 3 hours. The fluorescence intensity directly correlates with the amount of intracellular Na^+.

GLP-1R [6] = target: T1, GLP-1R (Rattus norvegicus, UniProt P32301); assay: GLP-1R localisation by immunofluorescent staining in choroid plexus explants; type: cell-based; settings: 100 nM
T1 construct: The choroid plexus from the lateral ventricles were dissected and placed in artificial CSF; from tissue; host or cells: rat choroid plexus explants (lateral ventricles)
T1 sequence (P32301 22-463): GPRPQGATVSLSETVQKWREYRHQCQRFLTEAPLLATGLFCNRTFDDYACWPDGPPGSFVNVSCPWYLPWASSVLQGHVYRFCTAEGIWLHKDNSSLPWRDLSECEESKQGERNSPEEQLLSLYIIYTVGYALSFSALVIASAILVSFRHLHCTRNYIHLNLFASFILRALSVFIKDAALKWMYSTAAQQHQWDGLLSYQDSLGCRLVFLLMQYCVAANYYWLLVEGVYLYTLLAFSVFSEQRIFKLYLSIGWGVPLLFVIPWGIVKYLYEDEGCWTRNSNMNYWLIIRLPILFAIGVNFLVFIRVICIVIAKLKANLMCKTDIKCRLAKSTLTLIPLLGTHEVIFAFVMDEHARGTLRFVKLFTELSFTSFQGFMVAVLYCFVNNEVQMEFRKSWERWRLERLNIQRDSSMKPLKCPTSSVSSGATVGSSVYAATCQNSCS
Description: (§2) The choroid plexus from the lateral ventricles were dissected and placed in artificial CSF (aCSF; 118 mM NaCl, 22 mM NaHCO3, 1.45 mM K2HPO4, 1 mM MgSO4, 1 mM CaCl2 and 10 mM glucose). To evaluate the effects of Exendin-4 on GLP-1R localisation within the cell, the explants were incubated with aCSF containing 100 nM Exendin-9 for 15 minutes or 100 nM Exendin-4 for 15 and 30 minutes. The explants were then fixed and stained following the protocol described below. To determine the effects of Exendin-4 on GLP-1R mRNA expression and protein levels the explants were incubated with aCSF containing 100 nM Exendin-4 for 3 and 6 hours, immediately frozen in liquid nitrogen and stored at −80° C.
For fluorescence labelling of choroid plexus explants and CPe cells, cells were first fixed in PBS containing 2% PFA and 2% glucose for 20 minutes at room temperature, washed in PBS and then permeabilised with methanol for 6 minutes at room temperature. The cells were stained using the same technique described above except that PBST was substituted with PBS.
Stained cells and sections were viewed under a Zeiss LSM 510 UV-confocal microscope (Carl Zeiss) and multiple Z-stack images were taken.

GLP-1R [7] = target: T1, GLP-1R; assay: GLP-1R mRNA (qPCR) and protein (western blot) in choroid plexus explants; type: cell-based; settings: 100 nM
Description: as §2
For qPCR studies, hypothalamus, anterior pituitary and choroid plexus were dissected, immediately frozen in liquid nitrogen and stored at −80° C. Primary cultures of CPe cells were grown on 12 well inserts until confluency. Total RNA was extracted using the GenElute mammalian total RNA extraction kit (Sigma-Aldrich) and carried out according to the manufacturer's instructions. RNA was reverse transcribed to complementary DNA (cDNA) using a high capacity reverse transcription kit according to the manufacturer's protocol (Life Technologies). Taqman Gene Expression Assays (Life Technologies) were used to assess the expression of GLP-1R (assay number Rn00562406_m1). The 18S ribosomal subunit was used as an endogenous reference (4319413E) and samples were run in triplicate. The cycle number at which the particular sample crossed that threshold (Ct) was used to determine the levels of gene expression and ΔCt was calculated as the difference between the Ct (gene of interest) and the Ct (endogenous reference).
The hypothalamus, pituitary and choroid plexus were dissected, immediately frozen in liquid nitrogen and stored at −80° C. Tissues were homogenised in ice cold lysis buffer (20 mM Tris-HCl pH 7.4, 150 mM NaCl, 1 mM EDTA, 0.5 mM EGTA, 1% NP-40 containing protease inhibitor) and centrifuged at 13,000 g to remove cell debris. CPe cells were grown on 12 well inserts until confluency. Cell and tissue lysates (3 μg protein) were separated on an 8% SDS-PAGE gel. […] After washing in TBST the membranes were incubated with HRP-conjugated secondary antibody diluted in milk/TBST for 1 hour at room temperature. The bands were detected using ECL reagents (Amersham) and developed onto film.

GLP-1R [8] = target: T1, GLP-1R; assay: cAMP assay in primary CPe cells; type: cell-based
Description: as §1
The effect of Exendin-4 on the downstream GLP-1R signalling pathway was assessed by measuring the levels of cAMP in CPe cells using the Amersham cAMP Biotrak Enzyme immunoassay (EIA) System (RPN 225, GE Healthcare Life Sciences). […] The cells were subsequently lysed and cAMP detected according to the manufacturer's instructions.

[9] = ICP recordings in conscious rats (epidural pressure bolt); type: in vivo, rat; settings: for change in ICP from baseline: 30 and 60 minutes post treatment
Description: This procedure and its validation were recently published as a methodological work and contains all technical and surgical detail (Uldall et al, 2014). In brief, rats were anaesthetised (2.7 ml/kg subcutaneous injection containing 1.25 mg/ml midazolam, 2.5 mg/ml fluanisone and 0.079 mg/ml fentanylcitrate). The rat was placed in a stereotactic frame (David Kopf Instruments) and a 2 cm-midline incision was performed on top of the skull and the bone was exposed by retracting the skin and soft tissue. A dental drill was used to induce 4 burr holes in the skull; one large hole was carefully drilled to expose the dura mater to enable placement of the epidural pressure bolt (C313G-3UP, PlasticsOne), with the cannula cut to be level with the base of the pedestal. The other 3 smaller holes were used to fit anchoring screws to the skull. The epidural pressure bolt and the anchoring screws were placed and aligned with the interior surface of the skull and secured using dental resin-cement (Clearfil SA Cement, RH Dental). The epidural pressure bolt and the transducer (DTX-Plus™, Argon Medical Devices) were then connected by a polyethylene tube filled with sterile water, ensuring the absence of air bubbles.
The pressure signal was visualised and recorded using Perisoft v.2.5.5 (Perimed). Correct ICP signal was confirmed by the transient elevation of ICP after jugular vein compression. When the ICP recording procedure was completed the epidural pressure bolt was closed with a bite proof cap (303DCFTX2, PlasticsOne) and the rat allowed to recover.
In order to perform recordings in conscious animals, rats were sedated with midazolam (2.5 mg/kg subcutaneous injection) and the transducer connected to the epidural pressure bolt. […] The ICP signal was again confirmed by jugular vein compression as described above. […]

GLP-1R [10] = target: T1, GLP-1R; assay: cAMP levels in choroid plexus explants; type: cell-based; settings: 3 hours, vs aCSF
Description: Histogram of mean±SEM of cAMP levels in choroid plexus explants in the 3 groups. The normal levels of cAMP observed with aCSF were increased after the addition of Exendin-4 (GLP-1R agonist) for 3 hours. Forskolin, an adenylate cyclase activator, acted as a positive control for cAMP levels;

Compound: myristoylated protein kinase inhibitor (PKI)-(14-22)-amide (Myristoyl-SGRTGRRNA-NH2; UniProt P61925 14-22, looked up, fragment) [PKA inhibitor]
- effect on the Exendin-4 reduction in Na+K+ATPase activity (Na^+K^+ATPase [1]; 5 μM PKA inhibitor + 100 nM Exendin-4): abolish the Exendin-4 reduction

Compound: NS(=O)(=O)c1cc(C(=O)O)c(NCc2ccco2)cc1Cl [furosemide]
- effects on ICP in IIH patients [2]: clinically beneficial effects on ICP

Compound: CC(=O)Nc1nnc(S(N)(=O)=O)s1 [Acetazolamide]
- visual field grades [3]: improved from baseline

Compound: CC1(C)O[C@@H]2[C@@H](CO[C@@]3(COS(N)(=O)=O)OC(C)(C)O[C@@H]23)O1 [Topiramate]
- visual field grades [3]: improved from baseline
- therapeutic benefit on IIH versus acetazolamide control cohort [3]: no therapeutic benefit on IIH was noted above the control cohort
- weight loss [3]: induce weight loss

Compound: C[C@@H]1O[C@@H](O[C@H]2C[C@@H](O)[C@]3(CO)[C@H]4[C@H](O)C[C@]5(C)[C@@H](C6=CC(=O)OC6)CC[C@]5(O)[C@@H]4CC[C@]3(O)C2)[C@H](O)[C@H](O)[C@H]1O [ouabain, Ouabain]
- CSF secretion (Na^+K^+ATPase [4]): totally inhibited

- GLP-1R mRNA level (GLP-1R [7]; 3 hours, vs aCSF): significant increases
- GLP-1R protein level (GLP-1R [7]; 3 hours, vs aCSF): significant increases
- GLP-1R mRNA level (GLP-1R [7]; 6 hours): returned to basal levels
- GLP-1R protein level (GLP-1R [7]; 6 hours): remained high
- increase in cAMP compared to baseline (GLP-1R [8]; 100 nM, 30 minutes, 1 mM IBMX): 2 fold
- cAMP levels in CPe cells compared to control (in words) (GLP-1R [8]; FIG. 10A): significantly increased
- cAMP levels in choroid plexus explants (GLP-1R [10]): increased
- cAMP levels in choroid plexus explants (GLP-1R [10]; listed as exendin-4): increased levels of cAMP
Compound: Exendin-4
- intracellular Na+ levels (Sodium Green fluorescence) [5]: higher numbers of intense fluorescent choroid plexus epithelial cells with no treatment
- intracellular Na+ levels (Sodium Green fluorescence) ([5]; listed as exendin-4): reduce intracellular sodium
- GLP-1R localisation after 15 minutes (GLP-1R [6]): predominantly restricted to the apical surface; also recorded: relocation of the GLP-1R to the apical surface
- GLP-1R localisation after 30 minutes (GLP-1R [6]; 30 minutes): translocated back to the cytoplasm; also recorded: internalised
- Na+K+-ATPase activity compared to control (in words) (Na^+K^+ATPase [1]; 100 nM, 30 minutes, FIG. 10B): reduced
- Na+K+ATPase specific phosphate production (Na^+K^+ATPase [1]; 100 nM, 30 minutes, ouabain-sensitive): 39.3±9.4 % of control
- change in ICP from baseline ([9]; 1 μg/kg): lowered the ICP from baseline
- change in ICP from baseline ([9]; 3 μg/kg): lowered the ICP from baseline
- change in ICP from baseline ([9]; 5 μg/kg): greatest reduction
- ICP over a 24 hour period ([9]; 5 μg/kg, 24 hours): remained reduced
- time to significant ICP reduction compared to saline ([9]; conscious rats, 20 μg/kg subcutaneous): ≤ 10 min
- persistence of ICP reduction during recording ([9]; conscious rats, 20 μg/kg subcutaneous, 60 minutes recording): remained significantly lower for the rest of the recording; also recorded: lasted for the full 60 minutes
- ICP reduction from baseline ([9]; conscious rats, 20 μg/kg subcutaneous, within 10 minutes): 60.6±4.9%

Compound: Exendin-9
- GLP-1R localisation after 15 minutes (GLP-1R [6]): predominantly restricted to the apical surface; also recorded: restricted to the apical membrane
